Data reported in patent publication US20020107235A1, “Glucocorticoid receptor modulators” (priority 2000, published 2002).

Experiments:
[1] = test system: IL-8 (Interleukin-8) production in SW1353 human chondrosarcoma cells; test: glucocorticoid inhibition of IL-1 induced IL-8 production in human chondrosarcoma cells; assay type: cell-based; conditions: 20 ng/ml IL-1 beta, 24 hours after addition of IL-1, ELISA, read-out: IC50, inhibitor of IL-8 expression
Method: (§1) This assay, the glucocorticoid inhibition of IL-1 (Interleukin-1) induced MMP-1 (Matrix Metalloproteinase-1) and IL-8 (Interleukin-8) production in human chondrosarcoma cells, is conducted as follows: SW1353 human chondrosarcoma cells (obtained from ATCC) from passage 12 through passage 19 are used in a 96 well format assay. Cells are plated at confluence into 96 well plates in DMEM (Dulbecco's Modified Eagle Medium) with 10% fetal bovine serum and incubated at 37° C., 5% CO2. After 24 hours, serum containing media is removed and replaced with 200 ul/well DMEM containing 1 mg/L insulin, 2 g/L lactalbumin hydrosylate, and 0.5 mg/L ascorbic acid and returned to incubation at 37° C., 5% CO2. […] IL-8 production is assessed using the Quantikine human IL-8 ELISA kit from R&D Systems (D8050) on samples diluted 60-fold in RD5P Calibrator Diluent, following the manufacturer's protocol. The percent of the average IL-1 control is determined for the average of each of the triplicate samples following subtraction of the average signal from untreated cells. IC50's are determined from log linear plots of the percent of control versus the concentration of inhibitor. […] MMP-1 production is assessed via the Bio-Trak MMP-1 ELISA kit from Amersham (RPN2610) on 100 ul of neat sample following the manufacturer's protocol. […]

[2] = test system: MMP-1 (Matrix Metalloproteinase-1) production in SW1353 human chondrosarcoma cells; test: glucocorticoid inhibition of IL-1 induced MMP-1 production in human chondrosarcoma cells; assay type: cell-based; conditions: 20 ng/ml IL-1 beta, 72 hours after IL-1 addition, ELISA, read-out: IC50, inhibitor of MMP1 expression
Method: as §1

C[C@@H]1C[C@H]2[C@@H]3CCC4=CC(=O)C=C[C@]4(C)[C@@]3(F)[C@@H](O)C[C@]2(C)[C@@]1(O)C(=O)CO [Dexamethasone, (11β, 16α)-9-fluoro-11,17,21-trihydroxy-16-methylpregna-1,4-diene-3,20-dione]
IC50 [1]: 5 nM
IC50 [2]: 5 nM
